Test results: PMC7247329, “Kaempferol and Its Glycoside, Kaempferol 7-O-rhamnoside, Inhibit PD-1/PD-L1 Interaction In Vitro” (International Journal of Molecular Sciences, 2020)
Where “and” joins values, the source holds several entries; their conditions need not be identical. Equal entries are not always repeated.

Columns and labels:
[1] = tested on: PD-1 level in co-cultured PD-1 Jurkat cells and PD-L1 CHO-K1 cells; test: Western blot of PD-1 expression in co-cultured cells; format: cell-based, human; settings: 24 h
[2] = tested on: PD-1/PD-L1 interaction in co-cultured PD-1 Jurkat T cells and PD-L1/aAPC CHO-K1 cells; test: Cell-based PD-1/PD-L1 blockade bioassay (NFAT-luciferase reporter, co-culture); design: species or system human; settings: co-culture 24 h; for EC50: Homo sapiens
Description: When co-cultured with PD-1 Jurkat T cells and PD-L1/aAPC CHO-K1 cells, TCR activation is restrained by PD-1/PD-L1 ligation and the NFAT-luciferase reporter activity. When PD-1/PD-L1 interaction is disrupted, TCR activation induces luminescence via activation of the NFAT pathway in co-culture systems. Therefore, the effects of KO and its glycosides on PD-1/PD-L1 interaction in the cell model system were examined by measuring NFAT-luciferase reporter activity after co-culture with PD-1/NFAT Reporter-Jurkat cells and PD-L1/aAPC CHO-K1 cells. […] The results described above indicate that KO and its glycosides are involved with the PD-1/PD-L1 blockade, as confirmed by the biochemical assay.
A PD-1/PD-L1 Blockade Bioassay kit was used according to the supplier’s instructions (Promega, Fitchburg, WI, USA) with a slight modification. Briefly, the PD-L1 aAPC/CHO-K1 cells were seeded in 96-well plates at a density of 5 × 10^4/well in the complete culture medium. A few hours later, the medium was removed, and 1 × 10^5 PD-1 Jurkat cells were added to each well with test inhibitors. The cells were cultured for 24 h at 37 °C and then lysed using the Bio-Glo™ Luciferase Assay System (Promega, Madison, WI, USA). After incubation for 15 min, luminescence was quantified using a GloMax® Explorer Multimode Microplate Reader (Promega). Data are presented as fold to untreated control.

PD-L1/aAPC CHO-K1 cells = test: Cell Counting Kit-8 (CCK) cell viability assay; format: cell-based; settings: 24 h
[3] = biological target: T1, PD-1/PD-L1 protein–protein interaction (Homo sapiens, UniProt Q9NZQ7); test: PD-1/PD-L1 competitive ELISA; format: binding
T1 construct: purchased BPS Bioscience #71104 (hPD-L1); #71109 (biotinylated hPD-1); kit #72005
T1 sequence (Q9NZQ7 19-239 limits assumed): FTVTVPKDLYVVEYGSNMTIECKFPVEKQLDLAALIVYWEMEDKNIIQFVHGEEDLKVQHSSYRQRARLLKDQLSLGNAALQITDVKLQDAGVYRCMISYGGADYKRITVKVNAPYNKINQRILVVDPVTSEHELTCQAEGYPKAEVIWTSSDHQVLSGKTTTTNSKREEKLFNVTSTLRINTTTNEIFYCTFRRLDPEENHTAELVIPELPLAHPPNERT
Description: To elucidate the effect of test inhibitors on PD-1/PD-L1 protein–protein interaction, PD-1/PD-L1 Competitive ELISA Screening Kits (BPS Bioscience Inc., San Diego, CA, USA) were used according to the supplier’s instructions [27]. Briefly, recombinant hPD-L1 (BPS Bioscience, #71104) was coated overnight at 1 μg/mL in phosphate-buffered saline (PBS) in 96-well plates (Corning Inc., New York, NY, USA). Plates were washed with PBS containing 0.1% Tween (PBS-T), blocked for 1 h at room temperature with PBS containing 2% (w/v) BSA, and then washed again. Fifty microliters of 0.5 μg/mL biotinylated hPD-1 (BPS Bioscience, #71109) was added to the wells, and the plates were incubated for 2 h at room temperature. After three washes in PBS-T, 50 μL of 0.2 μg/mL HRP-conjugated streptavidin was added to each well, and the plates were incubated for 1h. After incubation, plates were washed three times in 0.1% PBS-T, and relative chemiluminescence was measured on a SpectraMax L Luminometer from Molecular Devices (San Jose, CA, USA).

PD-1 Jurkat cells = test: Cell Counting Kit-8 (CCK) cell viability assay; format: cell-based, human; settings: 24 h
[4] = reported; no reference given; cited from earlier work
hPD-L1 = tested on: hPD-L1; design: method as in PMID 31455818, PMID 31374878; settings: biochemical results; cited from earlier work
biotinylated human PD-L1 = biological target: T2, biotinylated human PD-L1 (Homo sapiens, UniProt Q9NZQ7); test: Biolayer interferometry (BLItz) kinetic analysis; format: binding
T2 construct: purchased Sino Biological
T2 sequence (Q9NZQ7 19-290): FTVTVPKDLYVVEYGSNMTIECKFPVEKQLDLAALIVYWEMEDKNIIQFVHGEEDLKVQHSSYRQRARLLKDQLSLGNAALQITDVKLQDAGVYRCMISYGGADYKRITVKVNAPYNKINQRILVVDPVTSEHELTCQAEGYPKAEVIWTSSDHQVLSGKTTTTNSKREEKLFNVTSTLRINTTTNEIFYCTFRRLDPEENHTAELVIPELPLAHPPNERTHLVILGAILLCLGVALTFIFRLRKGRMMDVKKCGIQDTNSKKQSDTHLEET
Description: (§1) To measure the binding affinities and kinetic constants of test inhibitors, BLI analysis was conducted according to a previous report, with slight modifications. Briefly, BLI on a BLItz system is a label-free analytic technology for biomolecular interactions by measuring interference patterns of light reflected from two surfaces. After pre-equilibration of the SA BLI sensor (Pall FortéBio Corp., Menlo Park, CA, USA) in PBS buffer for 10 min, biotinylated human PD-1 (BioVision, Milpitas, CA, USA) and PD-L1 (Sino biological, Beijing, China) were fully loaded onto the sensors by immersion in 4 μL of PD-1 and PD-L1 solution and then dissolved in PBS buffer to 50 μg/mL. Test inhibitors for the kinetic analysis were prepared by 100-fold dilution of stock solution and dissolved in 100% DMSO (0, 0.25, 0.5, and 0.75 mM) in PBS buffer. Binding kinetics were measured as follows: step 1, initial baseline in PBS buffer containing 1% DMSO for 15 s; step 2, association in 4 μL of test inhibitors solution for 20 s; and step 3, dissociation in PBS buffer containing 1% DMSO for 20 s. The kinetic constants were calculated using the BLItz Pro software by fitting the association and dissociation data to a 1:1 model. The equilibrium dissociation constant, KD, was calculated as the dissociation constant (kd)/association constant (ka).

biotinylated human PD-1 = biological target: T3, biotinylated human PD-1 (Homo sapiens, UniProt Q15116); test: Biolayer interferometry (BLItz) kinetic analysis; format: binding
T3 construct: purchased BioVision
T3 sequence (Q15116 25-288): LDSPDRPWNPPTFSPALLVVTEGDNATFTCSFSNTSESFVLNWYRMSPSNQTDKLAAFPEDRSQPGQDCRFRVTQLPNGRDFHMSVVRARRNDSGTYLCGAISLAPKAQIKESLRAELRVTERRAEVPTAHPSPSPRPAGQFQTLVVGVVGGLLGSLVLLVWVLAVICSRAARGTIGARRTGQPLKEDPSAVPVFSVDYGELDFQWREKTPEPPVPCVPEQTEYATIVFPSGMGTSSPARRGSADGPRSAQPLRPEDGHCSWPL
Description: as §1

recombinant PD-1 (hPD-1) = recombinant PD-1 (hPD-1) (Homo sapiens, UniProt Q15116); test: Surface plasmon resonance (Biacore T200); format: binding; settings: SPR
Sequence of recombinant PD-1 (hPD-1) (Q15116 25-170 limits assumed): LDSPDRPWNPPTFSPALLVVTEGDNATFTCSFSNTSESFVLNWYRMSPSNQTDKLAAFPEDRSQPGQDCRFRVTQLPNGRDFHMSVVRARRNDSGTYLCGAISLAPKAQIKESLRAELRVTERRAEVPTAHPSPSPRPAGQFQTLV

| Structure (SMILES) | Effect on PD-1 level [1] | EC50 [2] | Cytotoxic concentration (not cytotoxic up to) (PD-L1/aAPC CHO-K1 cells) | IC50 ([3]; PD-L1-coated plate, biotinylated PD-1, read-out: IC50, PD-1/PD-L1 blocking effect) | Cytotoxic concentration (not cytotoxic up to) (PD-1 Jurkat cells) | Solubility in water [4] | Direct targeting of hPD-L1 (hPD-L1) | Effect on PD-1/PD-L1 interaction in cell model ([2]; indicated concentration) | kd (biotinylated human PD-L1; PD-L1) | kon (biotinylated human PD-L1; PD-L1, read-out: ka) | Kd (biotinylated human PD-L1; PD-L1 immobilized on SA sensor, PBS pH 7.3 with 1% DMSO, 1:1 model) | kd (biotinylated human PD-1; PD-1) | kon (biotinylated human PD-1; PD-1, read-out: ka) | Kd (biotinylated human PD-1; PD-1 immobilized on SA sensor, PBS pH 7.3 with 1% DMSO, 1:1 model) | Kd (recombinant PD-1 (hPD-1); Biacore T200, recombinant PD-1) | Rmax (recombinant PD-1 (hPD-1); Biacore software) | Inhibitory effect on PD-1/PD-L1 binding [3] |
| --- | --- | --- | --- | --- | --- | --- | --- | --- | --- | --- | --- | --- | --- | --- | --- | --- | --- |
| O=c1c(O)c(-c2ccc(O)cc2)oc2cc(O)cc(O)c12 [KO, kaempferol] | not upregulation of PD-1 level | 16.5 µM | > 100 µM | 7.8 µM | > 100 µM | 440 mg/L and 1.537 mM |  |  |  |  |  |  |  |  |  |  |  |
| C[C@@H](O)[C@H](NC(=O)N[C@@H](CC(N)=O)c1nc([C@@H](N)CO)no1)C(=O)O [CA-170] |  |  |  |  |  |  | did not target hPD-L1 directly |  |  |  |  |  |  |  |  |  |  |
| C[C@@H]1O[C@@H](Oc2cc(O)c3c(=O)c(O[C@@H]4O[C@@H](C)[C@H](O)[C@@H](O)[C@H]4O)c(-c4ccc(O)cc4)oc3c2)[C@H](O)[C@H](O)[C@H]1O [KI, kaempferol-3,7-dirhamnoside] |  |  | > 100 µM |  | > 100 µM |  |  | no effect at the indicated concentration |  |  |  |  |  |  |  |  |  |
| C[C@@H]1O[C@@H](Oc2cc(O)c3c(=O)c(O)c(-c4ccc(O)cc4)oc3c2)[C@H](O)[C@H](O)[C@H]1O [KR, kaempferol 7-O-rhamnoside] | not upregulation of PD-1 level | 15.4 µM | > 100 µM |  | > 100 µM | 1.16 mg/mL and 2.68 mM |  |  | 0.00773 s⁻¹ | 392 M⁻¹ s⁻¹ | 19.7 µM | 0.00979 s⁻¹ | 315 M⁻¹ s⁻¹ | 31.1 µM | 156 µM | 24.92 | revealed inhibitory effects on PD-1/PD-L1 binding but did not show dose-dependent activities |
